From publication PMC10326281, “Insights into the mechanisms governing P01 scorpion toxin effect against U87 glioblastoma cells oncogenesis” (Frontiers in Pharmacology, 2023)
≈ marks a conversion by molar mass, not a printed value. Where a SMILES comes first, the peptide text is derived from it. Bridges are numbered along the chain shown (N, C = ends).

Tests used:
[1] = test system: LS174 colon adenocarcinoma cells; test: Cell viability (MTT), LS174; type: cell-based, human; conditions: 25–200 μg/mL, 24 h, 10,000 cells per well, n = 3
Excerpt: (§1) The ATCC (American Type Culture Collection, Rockville, MD, United States) cancer cell lines U87 (glioblastoma), MDA-MB231 (breast cancer) and LS174 (colon adenocarcinoma) were routinely cultured in DMEM supplemented with 10% fœtal bovine serum (FBS), 1% l-glutamine and 100 IU/mL penicillin/streptomycin. […] Rat SK2 cDNA cloned into pJA5 plasmid was a gift from Dr. Skolnik (university Langone Medical center, New York). Human SK3 cDNA cloned into Pipru vector was a king gift from Pr. Soriani (Université Côte d’Azur, CNRS, Inserm, Nice, France).
The human cell lines U87, MDA-MB231, or LS174 (10,000 cells per well) were treated with P01 peptide at different concentrations (25; 50; 100 and 200 μg/mL). After 24 h, the wells were washed with phosphate-buffered saline (PBS) and then the 3-(4,5-dimethylthiazol-2-yl)-2,5-diphenyltetrazolium bromide (MTT) (0.5 mg/mL) was added to the cells as previously described ([Kouba et al., 2020]). The crystals formed after the reduction of MTT by mitochondrial dehydrogenases were dissolved with dimethylsulfoxyde (DMSO). The quantification of live cells was achieved by measuring absorbance at 560 nm using a spectrophotometer (Thermo-Multiskan EX, Shanghai, China).

[2] = test system: MDA-MB231 breast cancer cells; test: Cell migration assay (modified Boyden chamber), MDA-MB231; type: cell-based, human; conditions: 50 μg/mL, 5 h, fibronectin 10 μg/mL coating, n = 3
Excerpt: as §1
Cell migration assay was performed using modified Boyden chamber (NeuroProbe Inc., Bethesda, MD, United States) as previously described ([Sarray et al., 2007]). Membranes were coated with fibrinogen (Fg) (50 μg/mL), fibronectin (Fn) (10 μg/mL), collagen type I (Coll-I) (50 μg/mL) for U87, MDA-MB231 and LS174 cells respectively, for 2 h at 37°C. Cells were harvested as a single cell suspension (10^6 cells/mL) and treated with P01 at 50 μg/mL. Then added to pre-coated membranes and allowed to migrate for 5 h at 37°C in Boyden chamber. Cells were fixed on the underside of the membrane, stained by 0.1% crystal violet and migration was quantified by measuring the absorbance at 560 nm using a spectrophotometer (Thermo-Multiskan EX, Shanghai, China).

[3] = test system: U87 glioblastoma cells; test: Cell adhesion assay, U87; type: cell-based, human; conditions: n = 3; for inhibition of adhesion: 50 μg/mL P01, 2 h
Excerpt: as §1
Adhesion assays were performed as previously described by ([Sarray et al., 2007]). Glioblastoma U87 cells in suspension (10^6 cells/mL) were treated with 50 μg/mL of P01 and deposited on wells coated with purified extracellular matrix (ECM): Fg at 50 μg/mL; Fn at 10 μg/mL; Coll-I at 50 μg/mL; laminin (Lam) at 15 μg/mL or poly-L-lysine (PL) at 20 μg/mL for U87. MDA-MB231 and LS174 cells were also used in their adequate ECM: Fg and Coll-I respectively. They were incubated to adhere to the substrate for 2 h or 24 h at 37°C. After washing, attached cells were fixed, stained by 0.1% crystal violet, lysed with 1% SDS and quantified by measuring absorbance at 560 nm. The specific adhesion is obtained by subtracting the absorbance obtained in the absence of adhesion substrate (no specific control). To study the dose-response effect, different concentrations of P01 were used (25–100 μg/mL) and the IC50 value was determined.

[4] = test system: αvβ3 integrin; test: U87 cell adhesion in presence of anti-integrin antibodies, αvβ3; type: cell-based, human; conditions: 50 μg/mL P01, 30 min pre-incubation, 2 h at 37°C, anti-αvβ3 (1/200), n = 3
Procedure: (§2) To study the implication of integrins in the P01 peptide activity, adhesion assays using anti-integrin blocking antibodies: anti- α1β1 (1/200), anti- αvβ3 (1/200), anti- α5 (1/200) and anti- β3 (1/200) were performed as described above, except that cells were pretreated with the active peptide P01 at 50 μg/mL.

[5] = test system: α5 integrin; test: U87 cell adhesion in presence of anti-integrin antibodies, α5; type: cell-based, human; conditions: 50 μg/mL P01, 30 min pre-incubation, 2 h at 37°C, anti-α5 (1/200), n = 3
Procedure: as §2

[6] = test system: human SK3 channel; test: Whole-cell patch clamp, human SK3 in HEK293T cells; type: cell-based; conditions: human SK3 in HEK cells, currents recorded at 0 mV, pCa 6
Excerpt: as §1
HEK293T-hSK3 and HEK293-rSK2 cells were selected using the puromycin and neomycin resistance gene respectively. HEK cells were routinely cultured in DMEM supplemented with 5% FBS and 1% l-glutamine. All cell lines were maintained at 37°C in a humid atmosphere of 5% CO2 in air.
Experiments were performed with cells seeded into 35-mm Petri dishes at 3,000 to 6,000 cells per cm^2. All experiments were performed using the conventional whole-cell recording configuration of the patch-clamp technique ([Girault et al., 2011]). For HEK cells expressing SK2 or SK3 channels, voltages clamp ramp protocols were used with a duration of 2 s, with varying voltages - 100 to +100 mV, with a holding potential of 0 mV. […] Also, at 0 mV, the membrane potential currents will be recorded mainly K^+ currents and not Cl^− currents.

[7] = test system: SK2 channel; conditions: Jurkat cells; ref Shakkottai et al., 2001; cited from earlier work
Excerpt: (§3) This can be explained by the differential expression of either functional SK2 isoforms or other membrane receptors between HEK293 and Jurkat cells.

[8] = test system: SK3 channel; conditions: Jurkat cells; ref Shakkottai et al., 2001; cited from earlier work
Excerpt: as §3

CC[C@H](C)[C@H](NC(=O)[C@@H]1CCCN1C(=O)[C@H](CCC(=O)O)NC(=O)[C@@H]1CSSC[C@@H]2NC(=O)[C@H](Cc3c[nH]cn3)NC(=O)[C@H](CCC(=O)O)NC(=O)[C@@H]3CCCN3C(=O)[C@@H]3CSSC[C@H](NC(=O)[C@H](CCCCN)NC(=O)[C@H](CC(=O)O)NC(=O)[C@H](CC(N)=O)NC(=O)[C@H](CC(=O)O)NC(=O)[C@H](CSSC[C@H](NC(=O)[C@H](CO)NC(=O)[C@@H](N)C(C)C)C(=O)N[C@@H](CCC(=O)O)C(=O)N[C@@H](CC(=O)O)C(=O)N3)NC(=O)[C@H](CCCCN)NC(=O)[C@H](C)NC(=O)[C@H](CCC(N)=O)NC(=O)[C@H](C)NC(=O)[C@H](CCCCN)NC(=O)[C@H](CCC(N)=O)NC(=O)[C@H]([C@@H](C)O)NC(=O)[C@H](CO)NC2=O)C(=O)N[C@@H](C(C)C)C(=O)N1)C(=O)O [P01] (H-VSCEDCPEHCSTQKAQAKCDNDKCVCEPI-OH; disulfide 3-19, 6-24, 10-26 (inferred); N-terminus and C-terminus assumed)
cytotoxic effect (cell viability) [1]: did not have a cytotoxic effect | effect on migration [2]: no effect | effect on adhesion after 24 h, Fg and Fn ([3]; Fg and Fn, 50 μg/mL P01, 24 h): stayed active on Fg and Fn | inhibition of adhesion ([3]; fibrinogen (Fg), 37°C): 41% | IC50 (adhesion to Fg) ([3]; fibrinogen, 25–100 μg/mL, 2 h): 48.86 µg/mL (≈ 15.4 µM) | inhibition of adhesion ([3]; fibronectin (Fn), 37°C): 38% | IC50 (adhesion to Fn) ([3]; fibronectin, 25–100 μg/mL, 2 h): 62.04 µg/mL (≈ 19.5 µM) | inhibition of adhesion ([3]; poly-L-lysine (Pl)): no inhibition could be observed | effect on adhesion after 24 h, Pl ([3]; poly-L-lysine (Pl), 50 μg/mL P01, 24 h): an inhibition effect on Pl appeared | effect on adhesive function of αvβ3 [4]: reduced the adhesive function | effect on adhesive function of α5 [5]: reduced the adhesive function | effect on SK3 current [6]: no effect | blocking activity on SK2 [7]: little or no blocking activity | blocking activity on SK3 [8]: little or no blocking activity
